Measured values: ChEMBL document CHEMBL1201862, “PubChem BioAssay data set” (2004)
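Growth conditions: 96-well plates. Treatment: test compound, 48 hours, 5 concentrations. Analysis: linear interpolation between bracketing concentrations; unreached endpoints set to highest concentration. GI50 = concentration required for 50% inhibition of growth.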 The source made the active and inactive calls. Rule as the data show it: active = GI50 up to about 1.1 µM and inactive = higher.

What was measured:
Assay in all cases: NCI anticancer screen, dose series, 48 h
[1] = tested on: DU-145
[2] = tested on: MDA-MB-231
[3] = tested on: SK-MEL-5
[4] = tested on: SK-OV-3
[5] = tested on: NCI-H460
[6] = tested on: TK-10
[7] = tested on: SF-539
[8] = tested on: A549
[9] = tested on: HL-60
[10] = tested on: RPMI-8226
[11] = tested on: OVCAR-8
[12] = tested on: OVCAR-5
[13] = tested on: Malme-3M
[14] = tested on: NCI-H226
[15] = tested on: IGROV-1
[16] = tested on: HCT-116
[17] = tested on: MDA-N
[18] = tested on: HCC 2998
[19] = tested on: M14
[20] = tested on: SNB-19
[21] = tested on: CAKI-1
[22] = tested on: CCRF-CEM
[23] = tested on: HCT-15
[24] = tested on: BT-549
[25] = tested on: SF-295
[26] = tested on: NCI-H23
[27] = tested on: HOP-92
[28] = tested on: K562
[29] = tested on: SN12C
[30] = tested on: U-251
[31] = tested on: OVCAR-3
[32] = tested on: MOLT-4
[33] = tested on: HOP-62
[34] = tested on: PC-3
[35] = tested on: RXF 393
[36] = tested on: HT-29
[37] = tested on: SR
[38] = tested on: SK-MEL-28
[39] = tested on: UO-31
[40] = tested on: Hs-578T
[41] = tested on: KM12
[42] = tested on: 786-0
[43] = tested on: NCI-H522
[44] = tested on: SW-620
[45] = tested on: T47D
[46] = tested on: NCI/ADR-RES
[47] = tested on: EKVX
[48] = tested on: MDA-MB-435
[49] = tested on: UACC-62
[50] = tested on: ACHN
[51] = tested on: SK-MEL-2
[52] = tested on: SF-268
[53] = tested on: UACC-257
[54] = tested on: MCF7
[55] = tested on: OVCAR-4
[56] = tested on: COLO 205
[57] = tested on: LOX IMVI
[58] = tested on: SNB-75

Compound: O=S(=O)(O)c1ccc2c(/N=N/c3ccc(/N=N/c4ccccc4)cc3)c(O)c(S(=O)(=O)O)cc2c1
- GI50 [1]: > 100 µM (inactive)
- GI50 [2]: > 100 µM (inactive)
- GI50 [3]: > 100 µM (inactive)
- GI50 [4]: > 100 µM (inactive)
- GI50 [5]: > 100 µM (inactive)
- GI50 [6]: > 100 µM (inactive)
- GI50 [7]: > 100 µM (inactive)
- GI50 [8]: > 100 µM (inactive)
- GI50 [9]: > 100 µM (inactive)
- GI50 [10]: > 100 µM (inactive)
- GI50 [11]: > 100 µM (inactive)
- GI50 [12]: > 100 µM (inactive)
- GI50 [13]: > 100 µM (inactive)
- GI50 [14]: > 100 µM (inactive)
- GI50 [15]: > 100 µM (inactive)
- GI50 [16]: 50.1 µM (inactive)
- GI50 [17]: > 100 µM (inactive)
- GI50 [18]: > 100 µM (inactive)
- GI50 [19]: > 100 µM (inactive)
- GI50 [20]: > 100 µM (inactive)
- GI50 [21]: > 100 µM (inactive)
- GI50 [22]: > 100 µM (inactive)
- GI50 [23]: > 100 µM
- GI50 [24]: > 100 µM (inactive)
- GI50 [25]: > 100 µM (inactive)
- GI50 [26]: > 100 µM (inactive)
- GI50 [27]: > 100 µM (inactive)
- GI50 [28]: > 100 µM (inactive)
- GI50 [29]: > 100 µM (inactive)
- GI50 [30]: > 100 µM (inactive)
- GI50 [31]: > 100 µM (inactive)
- GI50 [32]: > 100 µM (inactive)
- GI50 [33]: > 100 µM (inactive)
- GI50 [34]: > 100 µM (inactive)
- GI50 [35]: > 100 µM (inactive)
- GI50 [36]: > 100 µM (inactive)
- GI50 [37]: > 100 µM (inactive)
- GI50 [38]: > 100 µM (inactive)
- GI50 [39]: > 100 µM (inactive)
- GI50 [40]: > 100 µM (inactive)
- GI50 [41]: > 100 µM (inactive)
- GI50 [42]: > 100 µM (inactive)
- GI50 [43]: > 100 µM (inactive)
- GI50 [44]: > 100 µM (inactive)
- GI50 [45]: > 100 µM (inactive)
- GI50 [46]: > 100 µM (inactive)
- GI50 [47]: > 100 µM (inactive)
- GI50 [48]: > 100 µM (inactive)
- GI50 [49]: > 100 µM (inactive)
- GI50 [50]: > 100 µM (inactive)
- GI50 [51]: > 100 µM (inactive)
- GI50 [52]: > 100 µM (inactive)
- GI50 [53]: > 100 µM (inactive)
- GI50 [54]: > 100 µM (inactive)
- GI50 [55]: > 100 µM (inactive)
- GI50 [56]: > 100 µM (inactive)

Compound: Clc1ccc(-c2c3nc(c(-c4ccc(Cl)cc4)c4ccc([nH]4)c(-c4ccc(Cl)cc4)c4nc(c(-c5ccc(Cl)cc5)c5ccc2[nH]5)C=C4)C=C3)cc1
- GI50 [2]: > 100 µM (inactive)
- GI50 [3]: > 100 µM (inactive)
- GI50 [4]: > 100 µM (inactive)
- GI50 [5]: > 100 µM (inactive)
- GI50 [6]: > 100 µM (inactive)
- GI50 [7]: > 100 µM (inactive)
- GI50 [8]: > 100 µM (inactive)
- GI50 [9]: > 100 µM (inactive)
- GI50 [10]: > 100 µM (inactive)
- GI50 [57]: > 100 µM (inactive)
- GI50 [11]: > 100 µM (inactive)
- GI50 [12]: > 100 µM (inactive)
- GI50 [13]: 70.8 µM (inactive)
- GI50 [15]: > 100 µM (inactive)
- GI50 [18]: > 100 µM (inactive)
- GI50 [19]: > 100 µM (inactive)
- GI50 [20]: > 100 µM (inactive)
- GI50 [21]: > 100 µM (inactive)
- GI50 [22]: > 100 µM (inactive)
- GI50 [58]: 20.8 µM (inactive)
- GI50 [23]: > 100 µM
- GI50 [24]: > 100 µM (inactive)
- GI50 [25]: > 100 µM (inactive)
- GI50 [26]: > 100 µM (inactive)
- GI50 [27]: > 100 µM (inactive)
- GI50 [28]: > 100 µM (inactive)
- GI50 [29]: > 100 µM (inactive)
- GI50 [30]: > 100 µM (inactive)
- GI50 [31]: > 100 µM (inactive)
- GI50 [32]: > 100 µM (inactive)
- GI50 [33]: > 100 µM (inactive)
- GI50 [34]: > 100 µM (inactive)
- GI50 [36]: > 100 µM (inactive)
- GI50 [37]: > 100 µM (inactive)
- GI50 [38]: > 100 µM (inactive)
- GI50 [39]: > 100 µM (inactive)
- GI50 [40]: 40.1 µM (inactive)
- GI50 [41]: > 100 µM (inactive)
- GI50 [42]: > 100 µM (inactive)
- GI50 [43]: > 100 µM (inactive)
- GI50 [44]: > 100 µM (inactive)
- GI50 [45]: > 100 µM (inactive)
- GI50 [46]: > 100 µM (inactive)
- GI50 [47]: > 100 µM (inactive)
- GI50 [48]: > 100 µM (inactive)
- GI50 [49]: > 100 µM (inactive)
- GI50 [50]: > 100 µM (inactive)
- GI50 [51]: > 100 µM (inactive)
- GI50 [52]: > 100 µM (inactive)
- GI50 [53]: > 100 µM (inactive)
- GI50 [54]: > 100 µM (inactive)
- GI50 [55]: > 100 µM (inactive)
- GI50 [56]: > 100 µM (inactive)
